{"source": "patent US10864168B2", "about": "“Bioactive delivery vehicles” (The Regents of the University of California, priority 2014, dated 2020)", "key": {"porcine mouth mucosa": {"test_system": "porcine mouth mucosa", "assay": "Curcumin release and diffusion in porcine mouth mucosa from yeast encapsulation system", "experimental": "Curcumin release and diffusion in porcine mouth mucosa from yeast encapsulation system was evaluated. Yeast microcapsules loaded with curcumin were topically applied on the porcine oral cavity tissue. After incubations for corresponding time periods, curcumin permeation was detected by imaging the tissue cross-sections. Both integrated pixel intensity and penetration distance from skin top surface were calculated. The results are depicted in FIG. 18. […] Furthermore, the yeast carriers can be engineered to act as a programmable microcarrier system that can provide controlled or triggered release of bioactive components in oral mucosa. This engineering can be accomplished by physical, chemical and/or genetic modification of the cell wall and cytoplasmic composition of yeast cells including modification of their lipid content."}, "L. casei (S1)": {"test_system": "L. casei (S1)", "assay": "Encapsulation efficiency into bacteria by vacuum infusion", "format": "physicochemical, Lactobacillus casei", "details": "vacuum infused, 35% ethanol"}, "L. starkeyi (51-55)": {"test_system": "L. starkeyi (51-55)", "assay": "Encapsulation of curcumin into cultured yeast, lipogenesis induced or suppressed", "format": "physicochemical, Lipomyces starkeyi", "details": "vacuum infused, 35% ethanol", "excerpt": "Increased lipid content both improves the relative encapsulation efficiency of hydrophobic bioactives and the oxidative stability of encapsulated bioactives. In this aim, three strains (Saccharomyces cerevisiae, Candida utilis, Phaffia rhodozyma) of yeast with high and low lipid content (high lipid ascomycete and Saccharomyces cerevisiae (low lipid)) are selected. Similarly, and two strains of algal cells are selected (Chlorella minutissima (UTEX 2341), Chlorella sorokiniana (UTEX 2805). The yeast and algal cells are cultured to achieve varying levels of lipid content by influencing the extracellular nutrients, e.g. in the case of algal cells, deprivation of nitrogen in extracellular media can shift the metabolism to generate lipids, with varying levels of nitrogen, intracellular lipid content is modulated. The intracellular lipids are extracted from freeze dried yeast and algal cells and measured using established gravimetric methods. To induce lipogenesis, 5 mL of the pre-culture are transferred into a 500 mL baffled conical flask with 95 mL of media A (50 g/L glucose, 1.5 g/L yeast extract, 0.5 g/L NH4Cl, 7.0 g/L KH2PO4, 2.5 g/L Na2HPO4.2H2O, 1.5 g/L MgSO4.7H2O, 0.08 g/L FeCl3.6H2O, 10.0 mg/L ZnSO4.7H2O, 0.07 mg/L MnSO4.H2O, 0.1 mg/L CuSO4, 0.063 mg/L Co(NO3)2) and closed with a foam cap. […]"}, "Chlorella minutissima": {"test_system": "Chlorella minutissima", "assay": "Encapsulation of curcumin in algae cells using pressure assisted encapsulation", "format": "physicochemical", "details": "vacuum sealing, 5% ethanol, 100 mg cells", "excerpt": "(§1) Briefly, 1 gm of yeast or algal cells pellet is suspended in the 35% ethanolic solution of the selected bioactive compound. […] We have determined the % ethanol to achieve sufficient encapsulation of the selected encapsulated bioactive compounds using both the vacuum and high pressure assisted encapsulation process. Yeast or algal cell samples suspended in the ethanolic solution with the bioactive compound are sealed in boilable vacuum bags (Prime Source) at 99% vacuum (Ultravac 250, Koch Equipment LLC). […] The sealed samples are covered with aluminum foil to prevent any photo-degradation of the bioactives and incubated at room temperature (25° C.) for 10 minutes. Samples are emptied into 50 mL centrifuge tubes, centrifuged at 2200 rpm for 10 minutes to pellet the cells and the pelleted cells are washed twice with ethanolic solution (35%) and then five times with excess water to remove unencapsulated bioactives. Cells are sonicated to disrupt the cellular structure. […] The concentration of bioactive compound dissolved in the organic phase is measured using UV-vis spectrophotometer. […] The encapsulation efficiency is determined as follows: [formula] where CE is the mass of extracted bioactive from the cells after encapsulation and CT is the amount of bioactive initially added to the cells. […]"}, "Chlorella sorokiniana": {"test_system": "Chlorella sorokiniana", "assay": "Encapsulation of curcumin in algae cells using pressure assisted encapsulation", "format": "physicochemical", "details": "vacuum sealing, 5% ethanol, 50 mg cells", "excerpt": "as §1"}, "E. coli (BL21)": {"test_system": "E. coli (BL21)", "assay": "Encapsulation efficiency into bacteria by vacuum infusion", "format": "physicochemical", "details": "vacuum infused, 35% ethanol"}}}
{"smiles": "COc1cc(/C=C/C(=O)CC(=O)/C=C/c2ccc(O)c(OC)c2)ccc1O", "note": "[Curcumin, curcumin]", "values": [{"measurement": "integrity of the compound in tissue", "setting": "porcine mouth mucosa; after 12 h", "value": "remained intact"}, {"measurement": "diffusion into mouth mucosa tissue", "setting": "porcine mouth mucosa; yeast microcapsules loaded with curcumin, topically applied", "value": "diffused into mouth mucosa tissue with a strong time-dependent manner"}, {"measurement": "Mass of Encapsulated Bioactive in Bacteria", "setting": "L. casei (S1)", "value": 1.041, "unit": "mg/g"}, {"measurement": "Mass of Encapsulated Bioactive in Yeast", "setting": "L. starkeyi (51-55); lipogenesis Induced", "value": 0.559, "unit": "mg/g"}, {"measurement": "Mass of Encapsulated Bioactive in Yeast", "setting": "L. starkeyi (51-55); lipogenesis Suppressed", "value": 0.466, "unit": "mg/g"}, {"measurement": "Mass of Encapsulated Bioactive in Algae", "setting": "Chlorella minutissima", "value": 0.184, "unit": "mg/g"}, {"measurement": "Mass of Encapsulated Bioactive in Algae", "setting": "Chlorella sorokiniana", "value": 0.355, "unit": "mg/g"}, {"measurement": "Mass of Encapsulated Bioactive in Bacteria", "setting": "E. coli (BL21)", "value": 0.489, "unit": "mg/g"}]}
